Results on 32 molecules are retold here after a melting point compilation (Tetko et al.; mined from patent text by program, amines drawn as free bases though some values may be those of a salt).

For `CC(=O)NC(=N)NCC1CC2c3cccc4[nH]cc(c34)CC2N(C)C1` (configuration not stated), the melting point was 218 to 220 °C. As for `CC(C#CC1CCC(Oc2ccc(F)cc2)C1)N(O)C(N)=O` (configuration not stated), the figure is 95.6 to 96.7 °C; as for `O=[N+]([O-])c1cc(OCc2ccccc2)c2ccccc2c1CCO`, 82 to 90 °C; as for `COc1ccc(C(NC(=O)c2ccc(F)cc2)c2cccc(Nc3c(OC)c(=O)c3=O)c2)cc1` (configuration not stated), 115 to 116 °C.

`Nc1ccc(N2CCN(c3ccccn3)CC2)cc1` came in with a melting point of 119 to 120 °C. For the molecule `CCc1cccc(C)c1CNc1nc(CO)cn2c(C)c(C)nc12`, the melting point came out at 166 °C. As for `COc1cc2c(cc1OC)C[C@@H](N1CCN(c3ccccc3OC)CC1)[C@H](O)C2` (relative stereo), the figure is 172 to 174 °C. Consider `NN(Cc1ccccc1[N+](=O)[O-])c1ccc(Cl)cc1`, for which the melting point lay in the range of 105 to 106 °C. As for `O=[N+]([O-])c1cccc(N2N=C(O)c3ccccc3C2CCO)c1` (configuration not stated), the figure is 164 to 165 °C. As for `Cc1nn(-c2c(Cl)cc(C(F)(F)F)cc2Cl)nc1COS(C)(=O)=O`, the figure is 126 to 128 °C. As for `Cc1cn(-c2ccc(N)c(C(F)(F)F)c2)c(C)n1`, the figure is 126 to 127 °C. As to `CCCc1nsc(N=C(Cl)N(C)C)c1C#N`, the melting point was 108 to 109 °C. As for `O=C1NC(=O)c2ccccc2/C1=C/Nc1ccc2ncccc2c1`, the figure is 277 to 278 °C; as for `Oc1cccc2c(Oc3ccccc3)cccc12`, 82 to 83 °C; as for `COc1ccc(S(=O)(=O)N2C(=O)C(OCC(=O)N3CCN(c4ccncc4)CC3)(c3ccccc3OC(C)C)c3cc(Cl)ccc32)c(OC)c1` (configuration not stated), 201 to 203 °C. In turn, `O=C(NCCCCCCCNC(=O)c1ccc(OC(F)(F)F)cc1)c1ccc(OC(F)(F)F)cc1` had a melting point of 150 to 151 °C. As for `OCCCc1cnoc1-c1ccc(Br)cc1`, the figure is 72 to 73 °C; as for `CC1(C)CCC(C)(C)c2cc(CC#Cc3ccc(C(N)=O)cc3)ccc21`, 207 to 208 °C; as for `Cc1[nH]c(C(=O)N2CCC(C(=O)NCCN(C)C)CC2)c(C)c1-c1nc2ccc(C(=O)c3ccccc3)cc2[nH]1`, 258 to 260 °C. For the molecule `CC(=O)NC[C@H]1CN(c2ccc(N3CCC(n4cc(C#N)nn4)CC3)c(F)c2)C(=O)O1`, the melting point lay within 148 to 150 °C. As for `CS(=O)c1cc(CCC(=O)OC(C)(C)C)cc(-c2nc(=O)c3ccccc3s2)n1` (configuration not stated), the figure is 220 °C.

`CC(C)Oc1ccc(C(=O)NCCCCCCCNC(=O)c2ccc(OC(C)C)cc2)cc1` showed a melting point of 135 to 136 °C.

With `COc1nc(I)cc(C(O)Cc2ccccc2)c1C` (configuration not stated), the melting point was in the range of 69 to 70 °C. As for `Cc1cc(-n2ccnc2)c2cccc(OCc3c(Cl)ccc(S(=O)(=O)N4CCC[C@H]4C(=O)NCC4CCN(C)CC4)c3Cl)c2n1`, the figure is 86 °C; as for `CN(c1ncccc1[N+](=O)[O-])C1CCNCC1`, 116 to 117 °C.

In the case of `COC(=O)[C@]12OC(=O)C[C@H]1S[C@@H]1[C@H](NC(=O)COc3ccccc3)C(=O)N12`, the melting point is 182 to 184 °C. The molecule `O=C(CCCc1cccs1)NC(Cc1ccc(C(F)(F)F)cc1)C(=O)c1ccc(F)cc1` (configuration not stated) displayed a melting point of 123 to 124 °C. `CC(C)Oc1nc(C#N)c(C#N)nc1Cl` displayed a melting point of 48.5 to 50 °C.

`COC(=O)Cc1ccc(CNC(=O)C2Cc3ccccc3N2S(=O)(=O)c2ccc(-c3cccc(C(F)(F)F)c3)cc2)c(F)c1` (configuration not stated) displayed a melting point of 50 to 57 °C. As for `CN1C[C@H]2Cc3ccc(Cl)cc3[C@H](c3ccc(Cl)cc3)[C@H]2C1` (racemic), the figure is 133 to 135 °C. As for `Cc1oc(-c2ccc(S(C)(=O)=O)cc2)c(Oc2ccc(Cl)cc2)c(=O)c1Br`, the figure is 251 °C; as for `COc1ccc(C(=O)C(=O)c2cccc(-c3ccc(S(C)(=O)=O)cc3)c2-c2ccccc2)cc1OC`, 181 to 183 °C.

The term melting point denotes the temperature, or range, at which the solid turns liquid.
